Paper PMC7402526, “An in vitro quantitative systems pharmacology approach for deconvolving mechanisms of drug-induced, multilineage cytopenias” (PLoS Computational Biology, 2020)

Key:
Type in all cases: cell-based, human
[1] = test system: hematopoietic stem cells (HSCs); assay: Multi-lineage toxicity assay (MLTA), HSCs: concentration-response and QSP model fit; conditions: Homo sapiens, Hematopoietic stem cell; for Emax: 144 h, parameter from QSP model fitting, read-out: Emax_drug_HSC; for EC50: QSP model parameter, sheet EC50_parameters, HSCs
Protocol: (§1) A custom optimized cytokine cocktail was developed using commercially available cytokines (Peprotech, New Jersey) to facilitate simultaneous multi-lineage differentiation and self-renewal of freeze-thawed primary human bone marrow-derived CD34+ cells in SFEM II media (cells and media from StemCell Technologies, Vancouver). Cultures were carried out in ultra-low attachment 96-well plates (Corning, New York) with test article added on day 0 and cultured at 37°C, 85% relative humidity, and 5% CO2 for six days before interrogating drug impact via 17-parameter flow cytometry.
(§2) The flow cytometry panel used to define hematopoietic subsets was composed of CD34-PECy7, CD90-PECY5, CD38-AF488, CD371-PE, CD45Ra-BV421, CD14-BV605, CD42b-AF647, CD10-PEDazzle594, CD235a-PerCPCy5.5 (BioLegend, California), CD15-BUV395, CD41a-APCH7, CD71-BV786 (BD Biosciences, California), and DAPI for dead cell exclusion (ThermoFisher, California). In short, Day 6 cells were harvested, FcR-blocked (FcR binding inhibitor, ThermoFisher), surface-stained, then analyzed in a buffer containing TruCount Control Beads using a BD LSR Fortessa SORP fitted with a high-throughput sampler (BD Biosciences, California). Data was analyzed in Diva 6.0.2 and exported to CSV where after all cell data was transformed to cell per mL then normalized on a per-donor basis to untreated control wells to determine drug impact.
(§3) Donor material was collected and cultured as described above. The number of replicate donor samples per drug ranged from 2–7 and varied per drug (S1 Table). Drug treatment was added at time 0 and cells were maintained in culture for 6 days. Concentrations tested for each drug compound are contained in S1 Table. Concentrations were selected to span a range that is clinically useful. Following treatment, cell populations were measured using flow cytometry. We extracted cell counts from flow cytometry data, normalized to bead counts, and corrected for well volume.
(§4) Each well was normalized to the average of six vehicle control wells. For drugs that were tested across multiple runs of the assay, vehicle-normalized donor data were pooled, and we used the average of these pooled data for further modeling. Normalized data used as model inputs are included in S1 Table.
(§5) We implemented drug effects using an Emax model for the drug’s effect on each cell type. The 13 maximum effect parameters (EmaxT,C) are unitless and can vary between 0 and 2 and where a subscript, C, represents one of the previously described 13 cell types. We adapted a traditional Emax model using the equations below. We interpreted EmaxT values less than or equal to one as anti-proliferative, and EmaxT values greater than one as indicating a cell-killing mechanism in addition to anti-proliferation. The relationships for these effects are included in the model using the following equations. Eq 2 describes the drug anti-proliferative effect in the net proliferation rate for a given cell type. Eq 3 describes the cell-killing EmaxCK effect.
(§6) Towards the estimation of mechanistic parameters, we considered different formulations: (a) weighting the objective value to prioritize fitting dead cells and (b) using regularization methodology to encourage a parsimonious solution. We assessed the contributions of these formulations using mean-squared error and goodness of fit plots for drugs with known mechanisms. […] Further, we used L1 regularization to penalize parameters […] to help identify a parsimonious set of parameters to explain drug effects.

[2] = test system: multi-potent progenitors (MPPs); assay: MLTA, MPPs: concentration-response and QSP model fit; conditions: Homo sapiens; for Emax: 144 h, parameter from QSP model fitting, read-out: Emax_drug_MPP; for EC50: QSP model parameter, sheet EC50_parameters, MPPs
Protocol: as §1, §2, §3, §4, §5, §6

[3] = test system: granulocyte-macrophage progenitor (GMPs); assay: MLTA, GMPs: concentration-response and QSP model fit; conditions: Homo sapiens; QSP model parameter, sheet EC50_parameters; GMPs
Protocol: as §1, §2, §3, §4, §5, §6

[4] = test system: granulocyte progenitor (Gran-lin prog); assay: MLTA, GranP: concentration-response and QSP model fit; conditions: Homo sapiens; for Emax: 144 h, parameter from QSP model fitting, read-out: Emax_drug_GranP; for EC50: QSP model parameter, sheet EC50_parameters, GranP, read-out: EC50GranP
Protocol: as §1, §2, §3, §4, §5, §6

[5] = test system: granulocytes (Gran-lin); assay: MLTA, Gran: concentration-response and QSP model fit; conditions: Homo sapiens; for Emax: 144 h, parameter from QSP model fitting, read-out: Emax_drug_Gran; for EC50: QSP model parameter, sheet EC50_parameters, Gran
Protocol: as §1, §2, §3, §4, §5, §6

[6] = test system: monocyte progenitors (monocyte prog); assay: MLTA, MonoP: concentration-response and QSP model fit; conditions: Homo sapiens, Monocyte; for Emax: 144 h, parameter from QSP model fitting, read-out: Emax_drug_MonoP; for EC50: QSP model parameter, sheet EC50_parameters, MonoP, read-out: EC50MonoP
Protocol: as §1, §2, §3, §4, §5, §6

[7] = test system: monocytes (monocyte-lin); assay: MLTA, Mono: concentration-response and QSP model fit; conditions: Homo sapiens, Monocyte; for Emax: 144 h, parameter from QSP model fitting, read-out: Emax_drug_Mono; for EC50: QSP model parameter, sheet EC50_parameters, Mono
Protocol: as §1, §2, §3, §4, §5, §6

[8] = test system: neutrophils (neutrophil-lin); assay: MLTA, Neut: concentration-response and QSP model fit; conditions: Homo sapiens, Neutrophil; for Emax: 144 h, parameter from QSP model fitting, read-out: Emax_drug_Neut; for EC50: QSP model parameter, sheet EC50_parameters, Neut
Protocol: as §1, §2, §3, §4, §5, §6

[9] = test system: early erythroid cells (Eryth I); assay: MLTA, ErythI: concentration-response and QSP model fit; conditions: Homo sapiens; for Emax: 144 h, parameter from QSP model fitting, read-out: Emax_drug_ErythroidI; for EC50: QSP model parameter, sheet EC50_parameters, Erythroid I, read-out: EC50ErythroidI
Protocol: as §1, §2, §3, §4, §5, §6

[10] = test system: late erythroid cells (Eryth II); assay: MLTA, ErythII: concentration-response and QSP model fit; conditions: Homo sapiens; for Emax: 144 h, parameter from QSP model fitting, read-out: Emax_drug_ErythroidII; for EC50: QSP model parameter, sheet EC50_parameters, Erythroid II, read-out: EC50ErythroidII
Protocol: as §1, §2, §3, §4, §5, §6

[11] = test system: MK cells (MK-lin); assay: MLTA, MK: concentration-response and QSP model fit; conditions: Homo sapiens; for Emax: 144 h, parameter from QSP model fitting, read-out: Emax_drug_MK; for EC50: QSP model parameter, sheet EC50_parameters, MK
Protocol: as §1, §2, §3, §4, §5, §6

[12] = test system: lymphocyte progenitors (LymP); assay: MLTA, LymP: concentration-response and QSP model fit; conditions: Homo sapiens, Lymphocyte; for Emax: 144 h, parameter from QSP model fitting, read-out: Emax_drug_LymP; for EC50: QSP model parameter, sheet EC50_parameters, LymP
Protocol: as §1, §2, §3, §4, §5, §6

[13] = test system: B cells (B-lin); assay: MLTA, B-lin: concentration-response and QSP model fit; conditions: Homo sapiens, B-cell; for Emax: 144 h, parameter from QSP model fitting, read-out: Emax_drug_B; for EC50: QSP model parameter, sheet EC50_parameters, B
Protocol: as §1, §2, §3, §4, §5, §6

SMILES	Emax [1] [%]	EC50 [1] [µM]	Emax [2] [%]	EC50 [2] [µM]	EC50 [3] [µM]	Emax [4] [%]	EC50 [4] [µM]	Emax [5] [%]	EC50 [5] [µM]	Emax [6] [%]	EC50 [6] [µM]	Emax [7] [%]	EC50 [7] [µM]	Emax [8] [%]	EC50 [8] [µM]	Emax [9] [%]	EC50 [9] [µM]	Emax [10] [%]	EC50 [10] [µM]	Emax [11] [%]	also measured
Nc1ccn([C@@H]2O[C@H](CO)[C@@H](O)[C@@H]2O)c(=O)n1 [Cytarabine]	61.3	0.0174	0.0181	0.122	0.00337	104	0.00696	0.0324	0.0327	0.03	0.0287	20.1	0.0632	18.3	0.00699	204	0.00431	2.92	0.000101	42.8	EC50 [11]: 0.00686 µM; Emax [12]: 0.032%; EC50 [12]: 0.0697 µM; Emax [13]: 83.9%; EC50 [13]: 0.00735 µM
Nc1cccc2c1CN(C1CCC(=O)NC1=O)C2=O (stereo not drawn) [Lenalidomide]	1.33e-06	1.13	4.52e-05	0.786	3.06	5.98e-05	0.937	9.94e-05	3.18	3.83e-05	1.05	3.68e-06	0.292	4.07e-06	2.69	1.17e-05	0.0769	1.48e-06	0.262	2.23e-06	EC50 [11]: 0.763 µM; Emax [12]: 0.0004%; EC50 [12]: 0.0267 µM; Emax [13]: 1.49e-05%; EC50 [13]: 1 µM
Cc1sc2c(c1C)C(c1ccc(Cl)cc1)=N[C@@H](CC(=O)Nc1ccc(O)cc1)c1nnc(C)n1-2 [OTX015]	40.1	0.241	0.05	0.427	0.851	0.16	0.176	126	0.364	0.18	0.114	37.5	0.264	16.7	0.0883	195	1.18	12	0.173	26.9	EC50 [11]: 4.13 µM; Emax [12]: 115%; EC50 [12]: 0.241 µM; Emax [13]: 76.8%; EC50 [13]: 0.425 µM
